For orientation: IC50 means the concentration that gives 50% inhibition. Low values mean greater potency, high ones weaker potency.

In the assay the target is T1, Caspase-1 (Homo sapiens, UniProt P29466).
T1 sequence (P29466 whole entry): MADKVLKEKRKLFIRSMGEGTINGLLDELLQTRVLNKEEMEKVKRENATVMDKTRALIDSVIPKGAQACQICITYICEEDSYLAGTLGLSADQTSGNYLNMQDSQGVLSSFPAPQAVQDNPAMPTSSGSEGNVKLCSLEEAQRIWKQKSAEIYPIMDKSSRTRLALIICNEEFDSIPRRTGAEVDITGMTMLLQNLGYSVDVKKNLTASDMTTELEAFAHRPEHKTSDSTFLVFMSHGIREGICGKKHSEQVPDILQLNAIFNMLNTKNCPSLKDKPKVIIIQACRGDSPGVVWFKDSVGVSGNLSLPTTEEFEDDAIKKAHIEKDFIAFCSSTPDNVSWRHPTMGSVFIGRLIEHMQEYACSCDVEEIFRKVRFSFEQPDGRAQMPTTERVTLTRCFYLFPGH
Description: CASP1/ASC signal blockers in yeast, IC50, counter-screen for NLRP1 inhibitor project (AID 488863). A general note: Counterscreens check selectivity or assay interference.
Consider `Oc1cc(Sc2nnnn2-c2ccccc2)c(O)n1-c1cccc(Cl)c1`, for which the IC50 amounted to 5.13 µM.

The compound `Cc1ccc(-n2c(O)cc(Sc3ccccc3C(=O)O)c2O)cc1` gave an IC50 of 20.6 µM.

The compound `COc1ccccc1-n1c(O)c2c(c1O)CC(c1ccccc1)CC2` (stereo not drawn) showed a 50% inhibitory concentration (IC50) above 100 µM.
